The record followed here is patent US6603046B1, “Bis-aromatic a,β-unsaturated ketones” (Lica Pharmaceuticals A/S, priority 1992, dated 2003).

Like-named read-outs stand apart in the source and are kept apart here.

Assay [1] has as its system L. major promastigotes. Kind of assay: L. major promastigotes from 4-days cultures, 3H-thymidine uptake (Examples 5, 14). Format: cell-based, Leishmania major. As to conditions: for inhibition at 0.5 µg/mL / inhibition at 1 µg/mL / inhibition at 5 µg/mL / inhibition at 10 µg/mL / inhibition at 20 µg/mL: Leishmania major; for inhibition at 0.5 µg/mL: 0.5 μg/ml; for inhibition at 1 µg/mL: 1 μg/ml; for inhibition at 5 µg/mL: 5 μg/ml; for inhibition at 10 µg/mL: 10 μg/ml; for inhibition at 20 µg/mL: 20 μg/ml. The procedure: Parasite cultures. The same parasite culture as described in Example 4. Promastigotes were harvested on day 4 of the culture and used for the parasiticidal assay.
Effect on promastigotes. […] Following incubation, […] of ^3H-thymidine was added to each well and further incubated for 18 hrs. Promastigotes were then harvested on filter paper by means of a cell harvester (Skatron, Lierbyen, Norway), extensively washed with distilled water and counted in a scintillation counter (Minaxi Ti-Carb 4000, United Technologies, Packard, USA).
L. major promastigotes. The L. major promastigotes were prepared as described in Example 4 and harvested after 4 days.

Assay [2] relates to human lymphocytes. Kind of assay: Lymphocyte Proliferation Assay, 3H-thymidine incorporation (Example 13). The note with it: Homo sapiens, Lymphocyte, read-out: inhibition of lymphocytes (lower figure). (Dividing cells build labelled thymidine or BrdU into new DNA.)
The mark [3] stands for this setting: read-out: percentage inhibition of 3H-thymidine uptake (mean ± SEM), Table 5.1.
The mark [4] stands for this setting: Table 14.1, read-out: percentage inhibition of promastigotes (upper figure).

Broadly, the inhibition is the share of the control response that was lost under treatment.

As for `COCCOCOc1ccc(C(=O)/C=C/c2ccc(OC)cc2OC)cc1`, in assay [1] (setting [3]), the inhibition at 0.5 µg/mL was 20%, the inhibition at 1 µg/mL is 14%, the inhibition at 5 µg/mL is 31% and the inhibition at 10 µg/mL amounted to 60.5 ± 5.6%.

For `O=C(/C=C/c1ccc(O)c(O)c1)c1ccc(O)cc1O`, in assay [1] (setting [4]), the inhibition at 0.5 µg/mL amounted to 7%, the inhibition at 1 µg/mL came out at 8%, the inhibition at 5 µg/mL stood at 4.2% and the inhibition at 10 µg/mL came out at 10.6%. For the same molecule, in assay [2], the inhibition at 0.5 µg/mL came to 0%, the inhibition at 1 µg/mL is 1%, the inhibition at 5 µg/mL was determined as 12% and the inhibition at 10 µg/mL was 51%.

For the molecule `O=C(/C=C/c1ccccc1)c1ccc(F)cc1`, in assay [1] (setting [4]), the inhibition at 5 µg/mL worked out at 88% and the inhibition at 10 µg/mL was 99%.

On to `COc1cc(OC)c(/C=C/C(=O)c2ccc(O)cc2)c(OC)c1`, for which, in assay [1] (setting [4]), the inhibition at 0.5 µg/mL is 25 ± 9.5%, the inhibition at 1 µg/mL was 25.6 ± 10.9%, the inhibition at 5 µg/mL turned out to be 23.6 ± 10.9% and the inhibition at 10 µg/mL stood at 25.1 ± 17.3%. In assay [2], the inhibition at 0.5 µg/mL was 0%, the inhibition at 1 µg/mL turned out to be 0%, the inhibition at 5 µg/mL was 48% and the inhibition at 10 µg/mL was 63.6%.

With `COc1ccc(/C=C/C(=O)c2ccc(OC)cc2)cc1`, in assay [1] (setting [4]), the inhibition at 0.5 µg/mL is 11.7 ± 9.2%, the inhibition at 1 µg/mL turned out to be 8.3 ± 4.6%, the inhibition at 5 µg/mL turned out to be 35.6 ± 23.4% and the inhibition at 10 µg/mL was 51.8 ± 15.8%. Also, in assay [2], the inhibition at 0.5 µg/mL worked out at 0%, the inhibition at 1 µg/mL amounted to 0%, the inhibition at 5 µg/mL worked out at 0% and the inhibition at 10 µg/mL worked out at 0%.

Take `C=CCOc1ccc(C(=O)/C=C/c2ccccc2OC)cc1`: in assay [1] (setting [4]), the inhibition at 0.5 µg/mL turned out to be 20.9 ± 7.7%, the inhibition at 1 µg/mL came out at 25.8 ± 15.3%, the inhibition at 5 µg/mL came to 52.8 ± 19.1% and the inhibition at 10 µg/mL stood at 76.6 ± 22.4%. Also, in assay [2], the inhibition at 0.5 µg/mL was 0%, the inhibition at 1 µg/mL stood at 0%, the inhibition at 5 µg/mL was 1.1% and the inhibition at 10 µg/mL was 80.1%.

`COc1ccc(/C=C/C(=O)c2ccccc2OCC=C(C)C)c(OC)c1`: in assay [1] (setting [4]), the inhibition at 0.5 µg/mL was 4.3%, the inhibition at 1 µg/mL turned out to be 1.8%, the inhibition at 5 µg/mL was 49% and the inhibition at 10 µg/mL came out at 83.2%. Further, in assay [2], the inhibition at 0.5 µg/mL came to 7.1%, the inhibition at 1 µg/mL stood at 6.6%, the inhibition at 5 µg/mL stood at 8.7% and the inhibition at 10 µg/mL was 35.9%.

As to `C=CCOc1ccc(C(=O)/C=C/c2c(OC)cc(OC)cc2OC)cc1`, in assay [1] (setting [4]), the inhibition at 0.5 µg/mL fell in the range of 25 to 44%, the inhibition at 1 µg/mL was 15 to 46%, the inhibition at 5 µg/mL lay within 14 to 50% and the inhibition at 10 µg/mL lay within 22 to 49%. In assay [2], the inhibition at 0.5 µg/mL was 8%, the inhibition at 1 µg/mL turned out to be 12%, the inhibition at 5 µg/mL worked out at 24% and the inhibition at 10 µg/mL is 48%.

Take `C=CCOc1ccc(C(=O)/C=C/c2cc(OC)c(OC)c(OC)c2)cc1`: in assay [1] (setting [4]), the inhibition at 0.5 µg/mL was in the range of 11 to 45%, the inhibition at 1 µg/mL was in the range of 16 to 47%, the inhibition at 5 µg/mL was 44 to 60% and the inhibition at 10 µg/mL lay in the range of 86 to 91%. Also, in assay [2], the inhibition at 0.5 µg/mL was found to be 4%, the inhibition at 1 µg/mL came to 4%, the inhibition at 5 µg/mL is 38% and the inhibition at 10 µg/mL stood at 98%.

Consider `C=CCOc1ccc(C(=O)/C=C/c2cc(OC)c(OC)cc2OC)cc1`, for which, in assay [1] (setting [4]), the inhibition at 0.5 µg/mL was found to be 24 ± 12%, the inhibition at 1 µg/mL was found to be 23.8 ± 12.5%, the inhibition at 5 µg/mL came to 23.2 ± 12.8% and the inhibition at 10 µg/mL was determined as 28.8 ± 16%. Further, in assay [2], the inhibition at 0.5 µg/mL is 0%, the inhibition at 1 µg/mL was determined as 0%, the inhibition at 5 µg/mL stood at 0% and the inhibition at 10 µg/mL was 27.6%.

As to `COCCOCOc1ccc(C(=O)/C=C/c2ccc(OCC=C(C)C)cc2OC)cc1`, in assay [1] (setting [4]), the inhibition at 0.5 µg/mL came out at 11.5%, the inhibition at 1 µg/mL was 14%, the inhibition at 5 µg/mL was 33.1% and the inhibition at 10 µg/mL was determined as 61.5%. In assay [2], the inhibition at 0.5 µg/mL is 0%, the inhibition at 1 µg/mL worked out at 8.1%, the inhibition at 5 µg/mL came to 14.1% and the inhibition at 10 µg/mL was 28.3%.

As to `COc1ccc(/C=C/C(=O)c2ccc(OCOC(=O)C(C)(C)C)cc2)c(OC)c1`, in assay [1] (setting [4]), the inhibition at 0.5 µg/mL came to 3.9%, the inhibition at 1 µg/mL was 0%, the inhibition at 5 µg/mL came out at 7.9% and the inhibition at 10 µg/mL was found to be 28.6%. For the same molecule, in assay [2], the inhibition at 0.5 µg/mL came to 7.1%, the inhibition at 1 µg/mL turned out to be 8.2%, the inhibition at 5 µg/mL was 9% and the inhibition at 10 µg/mL is 32.7%.

As to `O=C(c1ccccc1)C1OC1c1ccccc1` (stereo not drawn), in assay [1] (setting [4]), the inhibition at 0.5 µg/mL turned out to be 28.4 ± 13%, the inhibition at 1 µg/mL was found to be 33.4 ± 15.4%, the inhibition at 5 µg/mL is 73.2 ± 17.8% and the inhibition at 10 µg/mL was 88 ± 7.5%. Besides, in assay [2], the inhibition at 0.5 µg/mL was found to be 0%, the inhibition at 1 µg/mL turned out to be 0%, the inhibition at 5 µg/mL was 2% and the inhibition at 10 µg/mL is 85.4%.

With `COc1ccc(CCC(=O)c2ccc(O)cc2)c(OC)c1` [3-(2,4-dimethoxyphenyl)-1-(4-hydroxyphenyl)propan-1-on, reference compound], the “activity against Leishmania parasites in vitro” value in assay [1] is listed as “very low activity”.

Regarding `O=C(/C=C/c1ccccc1)c1ccc(O)cc1` [drawing 53], in assay [1] (setting [3]), the inhibition at 1 µg/mL is 35.9%, the inhibition at 5 µg/mL was 70.8%, the inhibition at 10 µg/mL was 82.8% and the inhibition at 20 µg/mL amounted to 91.9 ± 2.1%.

For `O=C(/C=C/c1ccc(O)cc1)c1ccccc1` [drawing 54], in assay [1] (setting [3]), the inhibition at 1 µg/mL is 39.1%, the inhibition at 5 µg/mL is 70.1%, the inhibition at 10 µg/mL was 84.5% and the inhibition at 20 µg/mL came to 94.3 ± 1.6%.

For `COc1ccc(/C=C/C(=O)c2ccc(O)cc2)c(OC)c1` [drawing 55], in assay [1] (setting [3]), the inhibition at 0.5 µg/mL was 19.4%, the inhibition at 1 µg/mL was 27.3%, the inhibition at 5 µg/mL is 61.8% and the inhibition at 10 µg/mL turned out to be 91.9 ± 4.6%.

As to `C=CCOc1ccc(C(=O)/C=C/c2ccc(OC)cc2OC)cc1` [drawing 56], in assay [1] (setting [3]), the inhibition at 0.5 µg/mL was 7.5%, the inhibition at 1 µg/mL was 17.5%, the inhibition at 5 µg/mL is 64.5% and the inhibition at 10 µg/mL came to 84.3 ± 3.5%.

For `COCOc1ccc(C(=O)/C=C/c2ccc(OC)cc2OC)cc1` [drawing 58], in assay [1] (setting [3]), the inhibition at 0.5 µg/mL was 8.5%, the inhibition at 1 µg/mL was 18.1%, the inhibition at 5 µg/mL is 56.3% and the inhibition at 10 µg/mL stood at 65 ± 5.9%.

`COc1cc(/C=C/C(=O)c2ccc(O)cc2O)ccc1O` [drawing 59]: in assay [1] (setting [3]), the inhibition at 0.5 µg/mL was 7.8%, the inhibition at 1 µg/mL was 14.3%, the inhibition at 5 µg/mL was 66.7% and the inhibition at 10 µg/mL worked out at 83.3 ± 4.6%.

With `CC(C)=CCc1c(O)ccc(C(=O)/C=C/c2cc(O)c3c(c2)C=CC(C)(C)O3)c1O` [drawing 97], in assay [1] (setting [4]), the inhibition at 10 µg/mL came to 18%.

Regarding `CC(C)=CCc1cc(/C=C/C(=O)c2ccc(O)c(CC=C(C)C)c2O)ccc1O` [drawing 98], in assay [1] (setting [4]), the inhibition at 1 µg/mL worked out at 12%, the inhibition at 5 µg/mL came out at 28% and the inhibition at 10 µg/mL is 91%.
